Laboratory results: PubChem BioAssay AID2060625 (Molecular Pharmacology Branch, DTP, NCI, 2025)

System: 186277-243-T-J2-PDC spheroids with HUVEC/MSC, viability
Assay: Anticancer human tumor 186277-243-T-J2-PDC patient-derived colon adenocarcinoma cell line growth inhibition [CLK]
Conditions: for IC50: curve of first compound; for viability, T/C: stronger effect = lower value; active = viability on the fitted dose curve at most 10% of control; inactive = the rest
Method in brief: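 Multi-cell-type spheroids combined patient-derived tumor cells with HUVEC endothelial cells and human mesenchymal stem cells. Paired agents were dosed in half-log steps down from about clinical Cmax, or from 10 microM where Cmax was unknown.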

[1] = second compound 0.0316 µM, first compound 0.0316 µM
[2] = second compound 0.0316 µM, first compound 0.1 µM
[3] = second compound 0.0316 µM, first compound 0.316 µM
[4] = second compound 0.0316 µM, first compound 1 µM
[5] = second compound 0.1 µM, first compound 0.0316 µM
[6] = second compound 0.1 µM, first compound 0.1 µM
[7] = second compound 0.1 µM, first compound 0.316 µM
[8] = second compound 0.1 µM, first compound 1 µM
[9] = second compound 0.316 µM, first compound 0.0316 µM
[10] = second compound 0.316 µM, first compound 0.1 µM
[11] = second compound 0.316 µM, first compound 0.316 µM
[12] = second compound 0.316 µM, first compound 1 µM
[13] = second compound 1 µM, first compound 0.0316 µM
[14] = second compound 1 µM, first compound 0.1 µM
[15] = second compound 1 µM, first compound 0.316 µM
[16] = second compound 1 µM, first compound 1 µM
[17] = second compound 3.16 µM, first compound 0.0316 µM
[18] = second compound 3.16 µM, first compound 0.1 µM
[19] = second compound 3.16 µM, first compound 0.316 µM
[20] = second compound 3.16 µM, first compound 1 µM
[21] = second compound 10 µM, first compound 0.0316 µM
[22] = second compound 10 µM, first compound 0.1 µM
[23] = second compound 10 µM, first compound 0.316 µM
[24] = second compound 10 µM, first compound 1 µM
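Note: compound exposure lasted seven days before readout.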
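Throughout, for viability, T/C: 100% = DMSO vehicle control wells.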

CC(=O)O[C@H]1C(=O)[C@@]2(C)[C@H]([C@H](OC(=O)c3ccccc3)[C@]3(O)C[C@H](OC(=O)[C@H](O)[C@@H](NC(=O)c4ccccc4)c4ccccc4)C(C)=C1C3(C)C)[C@]1(OC(C)=O)CO[C@@H]1C[C@@H]2O + CNC(=O)c1ccc(Nc2nc(OC3CCCC3)c3c(-c4ccc5nc(C)oc5c4)c[nH]c3n2)c(OC)c1
< 31.6 nM: IC50 (second compound 0.316 µM) | IC50 (second compound 1 µM) | IC50 (second compound 3.16 µM) | IC50 (second compound 10 µM)
> 10000 nM: IC50 (second compound 0.1 µM)
inactive: viability, T/C [1] 73.2% | viability, T/C [2] 73.2% | viability, T/C [3] 45.2% | viability, T/C [4] 26.3% | viability, T/C (second compound 0.0316 µM, first compound 3.16 µM) 27.7% | viability, T/C (second compound 0.0316 µM, first compound 10 µM) 59.1% | viability, T/C [5] 64.4% | viability, T/C [6] 85.1% | viability, T/C [7] 128% | viability, T/C [8] 142% | viability, T/C (second compound 0.1 µM, first compound 3.16 µM) 156% | viability, T/C (second compound 0.1 µM, first compound 10 µM) 166% | viability, T/C [9] 40.4% | viability, T/C [10] 64% | viability, T/C [11] 96% | viability, T/C [12] 105% | viability, T/C (second compound 0.316 µM, first compound 3.16 µM) 110% | viability, T/C (second compound 0.316 µM, first compound 10 µM) 94.6% | viability, T/C [13] 31.5% | viability, T/C [14] 44.1% | viability, T/C [15] 53.2% | viability, T/C [16] 53.3% | viability, T/C (second compound 1 µM, first compound 3.16 µM) 61% | viability, T/C (second compound 1 µM, first compound 10 µM) 65.5% | viability, T/C [17] 32.4% | viability, T/C [18] 44.6% | viability, T/C [19] 40.2% | viability, T/C [20] 48.4% | viability, T/C (second compound 3.16 µM, first compound 3.16 µM) 44.7% | viability, T/C (second compound 3.16 µM, first compound 10 µM) 50% | viability, T/C [21] 30.1% | viability, T/C [22] 36.4% | viability, T/C [23] 41% | viability, T/C [24] 39.5% | viability, T/C (second compound 10 µM, first compound 3.16 µM) 45.2% | viability, T/C (second compound 10 µM, first compound 10 µM) 47.6%
260 nM: IC50 (second compound 0.0316 µM)

CCc1c2c(nc3ccc(O)cc13)-c1cc3c(c(=O)n1C2)COC(=O)[C@]3(O)CC + CNC(=O)c1ccc(Nc2nc(OC3CCCC3)c3c(-c4ccc5nc(C)oc5c4)c[nH]c3n2)c(OC)c1
22.3 nM: IC50 (second compound 0.1 µM)
active: viability, T/C [14] 8.64% | viability, T/C [15] 5.93% | viability, T/C [16] 4% | viability, T/C [18] 10.9% | viability, T/C [19] 6.99% | viability, T/C [20] 3.82% | viability, T/C [22] 6.46% | viability, T/C [23] 7.11% | viability, T/C [24] 4.09%
24.4 nM: IC50 (second compound 0.0316 µM)
inactive: viability, T/C (second compound 0.0316 µM, first compound 0.00316 µM) 101% | viability, T/C (second compound 0.0316 µM, first compound 0.01 µM) 73.3% | viability, T/C [1] 43.3% | viability, T/C [2] 23.4% | viability, T/C [3] 16.7% | viability, T/C [4] 11.2% | viability, T/C (second compound 0.1 µM, first compound 0.00316 µM) 77.8% | viability, T/C (second compound 0.1 µM, first compound 0.01 µM) 71% | viability, T/C [5] 40.5% | viability, T/C [6] 19.2% | viability, T/C [7] 16.6% | viability, T/C [8] 10.3% | viability, T/C (second compound 0.316 µM, first compound 0.00316 µM) 64.4% | viability, T/C (second compound 0.316 µM, first compound 0.01 µM) 54% | viability, T/C [9] 21% | viability, T/C [10] 12.9% | viability, T/C [11] 12.4% | viability, T/C [12] 7.31% | viability, T/C (second compound 1 µM, first compound 0.00316 µM) 47.3% | viability, T/C (second compound 1 µM, first compound 0.01 µM) 31.8% | viability, T/C [13] 12.8% | viability, T/C (second compound 3.16 µM, first compound 0.00316 µM) 43.4% | viability, T/C (second compound 3.16 µM, first compound 0.01 µM) 23.8% | viability, T/C [17] 8.87% | viability, T/C (second compound 10 µM, first compound 0.00316 µM) 40.6% | viability, T/C (second compound 10 µM, first compound 0.01 µM) 24% | viability, T/C [21] 10.3%
< 3.16 nM: IC50 (second compound 1 µM) | IC50 (second compound 3.16 µM) | IC50 (second compound 10 µM)
11.5 nM: IC50 (second compound 0.316 µM)
